In patent publication US9580433B2 (Janssen Pharmaceutica NV, priority 2013, dated 2017):

Assays:
[1] = test system: Abeta 1-42 produced and secreted by SKNBE2 cells (BACE1); assay: BACE1 cellular αLisa assay in SKNBE2 cells, Abeta 1-42; assay type: cell-based, human; details: Homo sapiens, SKNBE2, 18 h, SKNBE2 cells expressing hAPP695, 18 hours incubation; read-out: Cellular αLisa assay in SKNBE2 cells Abeta 42 pIC50 (converted)
Description: (§1) BACE1 Cellular αLisa Assay in SKNBE2 Cells
(§2) In two αLisa assays the levels of Abeta total and Abeta 1-42 produced and secreted into the medium of human neuroblastoma SKNBE2 cells are quantified. The assay is based on the human neuroblastoma SKNBE2 expressing the wild type Amyloid Precursor Protein (hAPP695). The compounds are diluted and added to these cells, incubated for 18 hours and then measurements of Abeta 1-42 and Abeta total are taken. Abeta total and Abeta 1-42 are measured by sandwich αLisa. αLisa is a sandwich assay using biotinylated antibody AbN/25 attached to streptavidin coated beads and antibody Ab4G8 or cAb42/26 conjugated acceptor beads for the detection of Abeta total and Abeta 1-42 respectively. In the presence of Abeta total or Abeta 1-42, the beads come into close proximity. The excitation of the donor beads provokes the release of singlet oxygen molecules that trigger a cascade of energy transfer in the acceptor beads, resulting in light emission. Light emission is measured after 1 hour incubation (excitation at […] and emission at 615 nm).
(§3) A best-fit curve is fitted by a minimum sum of squares method to the plot of % Controlmin versus compound concentration.

[2] = test system: Abeta total produced and secreted by SKNBE2 cells (BACE1); assay: BACE1 cellular αLisa assay in SKNBE2 cells, Abeta total; assay type: cell-based, human; details: Homo sapiens, SKNBE2, 18 h, SKNBE2 cells expressing hAPP695, 18 hours incubation; read-out: Cellular αLisa assay in SKNBE2 cells Abetatotal pIC50 (converted)
Description: as §1, §2, §3

[3] = test system: brain levels of soluble Aβ42, Aβ40; assay: In vivo Aβ lowering, brain levels of soluble Aβ by MSD electrochemiluminescence; design: species or system mouse; details: 4 h after administration, untreated control set at 100
Source text: To determine whether acute administration of an Aβ lowering agent would reduce Aβ levels in vivo, non-transgenic rodents, e.g. mice or rats were used. Animals treated with the Aβ lowering agent were examined and compared to those untreated or treated with vehicle and brain levels of soluble Aβ42, Aβ40, Aβ38, and Aβ37 were quantitated by Meso Scale Discovery's (MSD) electrochemiluminescence detection technology. Treatment periods varied from hours (h) to days and were adjusted based on the results of the Aβ lowering once a time course of onset of effect could be established.
A typical protocol for measuring Aβ lowering in vivo is shown but it is only one of many variations that could be used to optimize the levels of detectable Aβ. For example, Aβ lowering compounds were formulated in 20% of Captisol® (a sulfo-butyl ether of β-cyclodextrin) in water or 20% hydroxypropyl 3 cyclodextrin. The Aβ lowering agents were administered as a single oral dose or by any acceptable route of administration to overnight fasted animals. After 4 h, the animals were sacrificed and Aβ levels were analysed.
Blood was collected by decapitation and exsanguinations in EDTA-treated collection tubes. Blood was centrifuged at 1900 g for 10 minutes (min) at 4° C. and the plasma recovered and flash frozen for later analysis. The brain was removed from the cranium and hindbrain. The cerebellum was removed and the left and right hemisphere were separated. The left hemisphere was stored at −18° C. for quantitative analysis of test compound levels. The right hemisphere was rinsed with phosphate-buffered saline (PBS) buffer and immediately frozen on dry ice and stored at −80° C. until homogenization for biochemical assays.
Mouse brains from non-transgenic animals were resuspended in 8 volumes of 0.4% DEA (diethylamine)/50 mM NaCl containing protease inhibitors (Roche-11873580001 or 04693159001) per gram of tissue, e.g. for 0.158 g brain, add 1.264 ml of 0.4% DEA. All samples were homogenized in the FastPrep-24 system (MP Biomedicals) using lysing matrix D (MPBio #6913-100) at 6 m/s for 20 seconds. […] Nine parts of supernatant were neutralized with 1 part 0.5 M Tris-HCl pH 6.8 and used to quantify Aβ.
To quantify the amount of Aβ42, Aβ40, Aβ38, and Aβ37 in the soluble fraction of the brain homogenates, simultaneous specific detection of Aβ42, Aβ40, Aβ38, and Aβ37 was performed using MSD's electro-chemiluminescence multiplex detection technology. […] Following this incubation and subsequent wash steps the assay was finished by adding read buffer according to the manufacturer's instructions (Meso Scale Discovery, Gaithersburg, Md.).
The SULFO-TAG emits light upon electrochemical stimulation initiated at the electrode. MSD Sector instrument SI6000 was used for signal read-out. […]

BACE1 = biological target: T1, BACE1 (Homo sapiens, UniProt P56817); assay: BACE1 biochemical FRET based assay; details: recombinant BACE1, 450 min, pH 5.0; read-out: BACE1 Biochemical FRET based assay pIC50 (converted)
T1 construct: recombinant BACE1 protein in a final concentration of 0.04 g/ml
T1 sequence (P56817 46-501): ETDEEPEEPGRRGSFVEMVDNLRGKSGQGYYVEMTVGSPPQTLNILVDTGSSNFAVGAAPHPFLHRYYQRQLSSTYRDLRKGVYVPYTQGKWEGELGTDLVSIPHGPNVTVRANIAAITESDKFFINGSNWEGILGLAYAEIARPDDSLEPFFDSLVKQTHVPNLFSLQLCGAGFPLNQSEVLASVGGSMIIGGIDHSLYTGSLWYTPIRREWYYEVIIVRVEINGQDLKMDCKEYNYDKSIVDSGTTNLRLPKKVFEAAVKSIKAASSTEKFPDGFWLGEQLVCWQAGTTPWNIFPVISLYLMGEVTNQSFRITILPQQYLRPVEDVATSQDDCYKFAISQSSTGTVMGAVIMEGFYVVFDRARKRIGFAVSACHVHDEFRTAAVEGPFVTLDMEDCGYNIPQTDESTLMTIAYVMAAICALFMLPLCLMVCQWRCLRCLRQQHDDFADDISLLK

BACE2 = biological target: T2, BACE2 (Homo sapiens, UniProt Q9Y5Z0); assay: BACE2 biochemical FRET based assay; details: recombinant BACE2, 450 min, pH 5.0; read-out: BACE2 Biochemical FRET based assay pIC50 (converted)
T2 construct: recombinant BACE2 protein in a final concentration of 0.4 μg/ml
T2 sequence (Q9Y5Z0 63-518): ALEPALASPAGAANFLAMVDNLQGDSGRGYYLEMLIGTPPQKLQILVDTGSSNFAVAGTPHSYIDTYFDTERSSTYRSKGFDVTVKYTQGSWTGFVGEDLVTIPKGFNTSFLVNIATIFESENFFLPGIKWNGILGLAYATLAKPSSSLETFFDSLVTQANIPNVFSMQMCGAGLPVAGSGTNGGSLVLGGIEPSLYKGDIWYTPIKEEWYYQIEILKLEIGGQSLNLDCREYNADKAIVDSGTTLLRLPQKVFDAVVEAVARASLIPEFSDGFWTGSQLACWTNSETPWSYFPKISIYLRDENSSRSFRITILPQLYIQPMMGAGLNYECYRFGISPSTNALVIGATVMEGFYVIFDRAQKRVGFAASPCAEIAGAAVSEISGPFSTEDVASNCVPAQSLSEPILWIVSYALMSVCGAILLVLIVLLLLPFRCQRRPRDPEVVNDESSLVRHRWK

SMILES	IC50 [1] [nM]	IC50 [2] [nM]	Aβ40 (% vs Ctrl)_Mean ([3]; dose 10, s.c.) [% vs Ctrl]	Aβ42 (% vs Ctrl)_Mean ([3]; dose 10, s.c.) [% vs Ctrl]	IC50 (BACE1) [nM]	IC50 (BACE2) [nM]	Aβ40 (% vs Ctrl)_Mean ([3]; dose 10, p.o.) [% vs Ctrl]	Aβ42 (% vs Ctrl)_Mean ([3]; dose 10, p.o.) [% vs Ctrl]
C[C@@]1(c2cc(NC(=O)c3ccc(C#N)cn3)ccc2F)Cn2cncc2C(N)=N1 [Compound 5, N-{3-[(6R)-8-Amino-6-methyl-5,6-dihydroimidazo[1,5-a]pyrazin-6-yl]-4-fluorophenyl}-5-cyanopyridine-2-carboxamide]	5.25	4.79	108	100	–	–	–	–
Cc1nc(C(=O)Nc2ccc(F)c([C@]3(C)Cn4cncc4C(N)=N3)c2)co1 [Compound 4, N-{3-[(6R)-8-Amino-6-methyl-5,6-dihydroimidazo[1,5-a]pyrazin-6-yl]-4-fluorophenyl}-2-methyl-1,3-oxazole-4-carboxamide]	26.3	24	–	–	11.7	6.46	111	108
